Experimental findings from patent US20190309323A1, “PROMOTER WITH AN ENRICHED CYTOSINE-GUANINE DINUCLEOTIDE REGION, VECTORS, CELLULAR LINES, METHOD FOR PRODUCING RECOMBINANT PROTEIN” (UNIVERSIDAD DE CHILE, priority 2016, published 2019) are described below.

The data set concerns CHO-K1 cells. The data set is described as follows: Transient transfection Dual-Glo luciferase assay (Luc/Ren). It counts as cell-based, Chinese hamster. The note with it: FIG. 9. The procedure: Furthermore, the effect of addition of the promoter on luciferase activity in transient transfections was determined. CHO-K1 cells were grown to reach 90% confluence were co-transfected using Lipofectamine CD (Invitrogen. EEU U), with the normalization vector pGL4.73 (Promega. USA) expressing Renilla luciferase reniformis (Ren), under the control of SV40 promoter, and with experimental vectors Seq1-Luc (SEQ ID No.: 2), Seq4-Luc (SEQ ID No.: 35) and Seq5-Luc (SEQ ID No.: 36) expressing Photinus pyralis luciferase (Luc), under the control of the promoters studied and pGL4.17 (base vector without promoter).
CHO-K1 cells were cultured in 24-well plates in DMEM-F12 medium (Gibco) supplemented with fetal bovine serum (FBS) (HyClone) 10%, at 37° C. and 5% CO2, inoculating 300,000 cells/mL for 24 hours, or up to between 80 to 90% confluency. […] To analyze the activity of the reporter gene transfections, the “Dual-Glo Luciferase Assay System (Promega. USA)” (Promega) was used following the manufacturer's instruction, where from cell lysate its measurable sequentially luciferase activity firefly expressed as reporters vectors and activity of renilla luciferase expressed by the normalizer vector. Both activities were mediated by quantifying luminiscence read on a Lumininometer, model Luminoskan ASECNT (Thermo Electronic Corporation). […]

Regarding “Seq5-Luc: reporter vector SEQ ID No. 36 under control of the minimal portion of CMV or Core CMV [reference compound]”, the “relative luciferase activity in transient transfection” value is on record as “lowest activity”.

B1: RegCG: 1147 bp fragment of Cricetulus griseus β-actin promoter rich in cytosine-guanine dinucleotides, SEQ ID NO. 5 (nucleic acid)
DNA: GGAGAGGGGGTAAAAAAATGCTGCACTGTGCGGCTAGGCCGGTGAGTGAGCGGCGCGGAGCCAATCAGCGCTCGCCGTTCCGAAAGTTGCCTTTTATGGCTCGAGTGGCCGCTGTGGCGTCCTATAAAACCCGGCGGCGCAACGCGCAGCCACTGTCGAGTCCGCGTCCACCCGCGAGCACAGGCCTTTCGCAGCTCTTTCTTCGCCGCTCCACACCCGCCACCAGGTAAGCAGGGACAACAGGCCCAGCCGGCCACAGCCCTCCCGTGGGCAGTGACCGCGCTGCAGGGTCGCGGGGGACACTCGGCGCGGACACCGGGGAAGGCTGGAGGGTGGTGCCGGGCCGCGGAGCGGACACTTTCAGATCCAACTTTCAGTCCAGGGTGTAGACCCTTTACAGCCGCATTGCCACGGTGTAGACACCGGTGGACCCGCTCTGGCTCAGAGCACGCGGCTTGGGGGAACCCATTAGGGTCGCAGTGTGGGCGCTATGAGAGCCGATGCAGCTTTCGGGTGTTGAACCGTATCTGCCCACCTTGGGGGGAGGACACAAGGTCGGGAGCCAAACGCCACGATCATGCCTTGGTGGCCCATGGGTCTTTGTCTAAACCGGTTTGCCCATTTGGCTTGCCGGGCGGGCGGGCGCGGCGGGCCCGGCTCGGCCGGGTTGGGGGCTGGGTTGCCACTGCGCTTGCGCGCTCTATGGCTGGGTATTGGGGCGCGTGCACGCTGGGGAGGGAGCCCTTCCTCTTCCCCCTCTCCCAAGTTAAACTTGCGCGTGCGTATTGAGACTTGGAGCGCGGCCACCGGGGTTGGGCGAGGGCGGGGCCGTTGTCCGGAAGGGGCGGGGTCGCAGCGGCTTCGGGGCGCCTGCTCGCGCTTCCTGCTGGGTGTGGTCGCCTCCCGCGCGCGCACTAGCCGCCCGCCGGCGGGGCGAAGGCGGGGCTTGCGCCCGTTTGGGGAGGGGGCGGAGGCCTGGCTTCCTGCCGTGGGGCCGCCTCCGGACCAGCGTTTGCCTCTTATGGTAATAACGCGGCCGGCCTGGGCTTCCTTTGTCCCCTGAGTTTGGGCGCGCGCCCCCTGGCGGCCCGAGGCCGCGGCTTGCCGGAAGTGGGCAGGGCGGCAGCGGCTGCGCCTAGTGGCCCGCCAGTGACCGCGACCCTCTTTTGTGCCCTGATATAGTTCGCC
modifications: Promoter
In the case of B1, the “relative luciferase activity in transient transfection” value was “has transcriptional activity”.
